Legend:
[1] = tested on: Trop-2-positive breast cancer cancer cell line; assay: Anti-cancer efficacy study in mice, Trop-2-positive cancer model; format: in vivo; conditions: single treatment at day 7, 3 mg/kg intravenous
[2] = In vivo pharmacokinetics experiment in mice (intact immunoconjugate in plasma, MS-based); conditions: single 7 mg/kg intravenous injection, plasma up to 380 h, FIG. 3
Description: Mice are maintained in individually ventilated cages at constant temperature (22±2° C., air-conditioned) and humidity (45-65%), under optimum hygienic conditions with 10-15 air changes per hour. A cycle of 12 h artificial fluorescent lightning and 12 h darkness is applied and animal behavior is monitored daily throughout the study. The mice receive food and water ad libitum.
To study the in vivo disposition of molecules of the invention mice are treated once with 6, 7 or commercial Trodelvy® at a dose of 7 mg/kg by intravenous injection. Plasma samples are collected at the following time points: predose, postdose: 2 min, 6 h, 24 h, 48 h, 72 h, 168 h, 240 h, and 380 h. All samples are analyzed using an MS-based analytical method for quantification of the intact immunoconjugates and of the free molecular cargo in the mouse plasma.

Substance: Trodelvy®
- tumor growth compared to the vehicle group ([1]; FIG. 4): strong suppression of tumor growth
- duration of tumor response ([1]; up to day 57, FIG. 4): tumors significantly start to grow again after day 30
- intact immunoconjugate in mouse plasma over time [2]: fast and significant loss of intact immunoconjugate

From patent US20250269050A1, “CYCLIC DICHALCOGENIDE ADC LINKER UNITS AND USES THEREOF” (priority 2024, published 2025)
